These results are taken from patent publication US20100093864A1, “ANTI-INFECTIVE THIOUREA COMPOUNDS” (LICA PHARMACEUTICALS, priority 2006, published 2010).

The subject of one data set is erythrocyte. Kind of data set: Erythrocyte hemolysis assay. The format is cell-based. The conditions noted are these: for 50% Haemolysis: concentration giving 50% haemolysis.
For data set [1], the target named is bovine serum albumin (BSA) (Bos taurus, UniProt P02769). Kind of data set: Protein binding bioassay: MICs in presence or absence of 40 mg/ml BSA. The format is in vitro ADME. As to conditions: MICs with or without 40 mg/ml BSA. The procedure: Protein binding was performed using a bioassay determining MICs in the presence or absence of 40 mg/ml bovine serum albumin (BSA).
Sequence of bovine serum albumin (BSA) (P02769 25-607): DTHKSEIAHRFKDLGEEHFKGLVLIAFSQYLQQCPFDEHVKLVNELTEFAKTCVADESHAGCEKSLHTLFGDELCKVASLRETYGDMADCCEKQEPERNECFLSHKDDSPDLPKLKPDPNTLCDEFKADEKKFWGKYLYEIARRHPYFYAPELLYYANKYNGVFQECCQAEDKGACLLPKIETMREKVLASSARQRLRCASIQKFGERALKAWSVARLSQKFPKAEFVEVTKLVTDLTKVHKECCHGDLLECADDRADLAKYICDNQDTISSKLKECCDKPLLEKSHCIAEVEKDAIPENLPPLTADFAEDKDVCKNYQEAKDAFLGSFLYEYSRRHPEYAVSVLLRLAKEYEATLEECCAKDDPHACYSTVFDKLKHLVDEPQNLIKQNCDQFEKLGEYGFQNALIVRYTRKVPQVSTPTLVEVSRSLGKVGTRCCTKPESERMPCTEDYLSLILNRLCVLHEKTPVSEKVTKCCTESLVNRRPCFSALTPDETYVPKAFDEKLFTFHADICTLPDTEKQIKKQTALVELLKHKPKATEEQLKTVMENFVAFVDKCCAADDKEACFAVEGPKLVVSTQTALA

Data set [2] relates to MCF7 cells (ATCC: HTB 22). Kind of data set: MTT assay on MCF7 cells. The format is cell-based. An excerpt:
The cytotoxicity effect of the compounds at different exposure times as a function of concentration has been tested in an erythrocyte hemolysis assay as well as an MTT assay on MCF7 cells (ATCC: HTB 22).

A further data set deals with Staphylococcus aureus. Put plainly: Antibacterial screening (MIC), broth microdilution assay. The format is cell-based. As to conditions: read-out: MIC Staph. aureus. The procedure: An initial screening for in vitro activity was conducted in a broth microtiter assay. The synthesized compounds were assayed against several […] such as Staphylococcus aureus and 2 different strains of E. coli (including a type strain and an antibiotic-susceptible strain). Following initial screening MICs were determined.
Staphylococcus aureus ATCC29213 Staphylococcus aureus ATCC33591 (MRSA) Eschericia coli ATCC25922 Eschericia coli ESS
The screening was performed with test compounds in 4 different concentrations.
MICs for ATCC type strains fall within the limits posted by the NCCLS (M100-S11) when tested against Vancomycin, Tetracycline and Gentamycin.
(In general: Broth dilution looks for growth in wells or tubes with falling amounts of substance.)

Setting [3] is: Staphylococcus aureus, broth microdilution per NCCLS M7-A5, strain not given.

In brackets after ≈: the same amount, converted by molar mass. Like-named read-outs stand apart in the source and are kept apart here.

As usually defined, the fraction unbound is the share of the substance not bound to proteins or other matrix. As for `FC(F)(F)c1cc(NC(=S)NCc2ccc(Cl)cc2)cc(C(F)(F)F)c1` [Compound F, 1-(3,5-Bis-trifluoromethyl-phenyl)-3-(4-chloro-benzyl)-thiourea], in the data set on erythrocyte (at 4x MIC), the “Haemolysis 4x MIC” value is reported as less than 1%. Moreover, the “50% Haemolysis” value in the data set with erythrocyte stood at 150 µM. In data set [1], this compound had a fraction unbound of less than 0.03. This compound also gave an MTT in data set [2] of 150 µM.

What is called MIC is the lowest concentration found to suppress growth. Turning to `FC(F)(F)c1cc(NC(=S)NCCc2ccc(Cl)cc2Cl)cc(C(F)(F)F)c1` [Compound D, 1-(3,5-Bis-trifluoromethyl-phenyl)-3-[2-(2,4-dichloro-phenyl)-ethyl]-thiourea], the MIC in the data set with Staphylococcus aureus (setting [3]) worked out at 0.3 µM (≈ 0.138 µg/mL). Also, the unbound share (fraction unbound) in data set [1] is 0.02. Also, the MTT in data set [2] came to 150 µM.

Consider `FC(F)(F)c1cc(NC(=S)NCc2ccc(Cl)cc2Cl)cc(C(F)(F)F)c1` [Compound B, 1-(3,5-Bis-trifluoromethyl-phenyl)-3-(2,4-dichloro-benzyl)-thiourea], for which, in the data set on erythrocyte (at 4x MIC), the “Haemolysis 4x MIC” value is given as less than 1%. Further, the “50% Haemolysis” value with erythrocyte was found to be 150 µM. In data set [1], this compound came in with an unbound share (fraction unbound) of less than 0.02. The MTT in data set [2] was 150 µM.

On to `Cc1onc(-c2c(Cl)cccc2Cl)c1C(=O)N[C@@H]1C(=O)N2[C@@H]1SC(C)(C)[C@@H]2C(=O)O` [Dicloxacillin, reference compound], for which the MIC in the data set with Staphylococcus aureus (setting [3]) came out at 0.5 µM (≈ 0.235 µg/mL). Also, the “Haemolysis 4x MIC” value in the data set with erythrocyte (4 x MIC) came to 0%. The “50% Haemolysis” value in the data set on erythrocyte amounted to 150 µM. The MTT in data set [2] was more than 100 µM.

Take `FC(F)(F)c1cc(NC(=S)NCc2cccc(Cl)c2)cc(C(F)(F)F)c1` [Compound A, 1-(3,5-Bis-trifluoromethyl-phenyl)-3-(3-chloro-benzyl)-thiourea]: the MIC with Staphylococcus aureus (setting [3]) worked out at 0.6 µM (≈ 0.248 µg/mL). Besides, in the data set with erythrocyte (at 4x MIC), the “Haemolysis 4x MIC” value is reported as less than 1%. In the data set with erythrocyte, the “50% Haemolysis” value turned out to be 75 µM. Moreover, the free fraction (fraction unbound) in data set [1] is 0.02. Further, the MTT in data set [2] turned out to be 150 µM.

With `FC(F)(F)c1cc(NC(=S)NCCc2cccc(Cl)c2)cc(C(F)(F)F)c1` [Compound G, 1-(3,5-Bis-trifluoromethyl-phenyl)-3-[2-(3-chloro-phenyl)-ethyl]-thiourea], in the data set with Staphylococcus aureus (setting [3]), the MIC came to 0.6 µM (≈ 0.256 µg/mL). Further, the “Haemolysis 4x MIC” value in the data set on erythrocyte (at 4x MIC) was 0%. For the same compound, the “50% Haemolysis” value in the data set on erythrocyte was found to be 75 µM. The compound further came in with a fraction unbound in data set [1] of less than 0.03. The same compound showed an MTT in data set [2] of 150 µM.

For the compound `O=C(O)c1cn(C2CC2)c2cc(N3CCNCC3)c(F)cc2c1=O` [Ciprofloxicin, reference compound], the MIC in the data set with Staphylococcus aureus (broth microdilution per NCCLS M7-A5, strain not given) is reported as 1.5 µM (≈ 0.497 µg/mL). Moreover, the “Haemolysis 4x MIC” value in the data set with erythrocyte (at 4x MIC) amounted to 0%. The “50% Haemolysis” value in the data set with erythrocyte turned out to be 150 µM. The compound further displayed an MTT in data set [2] of more than 100 µM.

In the case of `CN[C@H](CC(C)C)C(=O)N[C@H]1C(=O)N[C@@H](CC(N)=O)C(=O)N[C@H]2C(=O)N[C@H]3C(=O)N[C@H](C(=O)N[C@H](C(=O)O)c4cc(O)cc(O)c4-c4cc3ccc4O)[C@H](O)c3ccc(c(Cl)c3)Oc3cc2cc(c3O[C@@H]2O[C@H](CO)[C@@H](O)[C@H](O)[C@H]2O[C@H]2C[C@](C)(N)[C@H](O)[C@H](C)O2)Oc2ccc(cc2Cl)[C@H]1O` [Vancomycin, reference compound], in the data set with Staphylococcus aureus (Staphylococcus aureus), the minimum inhibitory concentration (MIC) stood at 0.3 µM (≈ 0.435 µg/mL). Further, in the data set on erythrocyte (at 4x MIC), the “Haemolysis 4x MIC” value was 0%. Also, the “50% Haemolysis” value with erythrocyte turned out to be 150 µM. The same compound yielded an MTT in data set [2] of more than 100 µM.

In the case of `CC(NC(=S)Nc1cc(C(F)(F)F)cc(C(F)(F)F)c1)c1ccc(Br)cc1` (stereo not shown) [Compound C, 1-(3,5-Bis-trifluoromethyl-phenyl)-3-[1-(4-bromo-phenyl)-ethyl]-thiourea], the MIC in the data set on Staphylococcus aureus (setting [3]) was 0.3 µM (≈ 0.141 µg/mL). The “Haemolysis 4x MIC” value in the data set on erythrocyte (at 4x MIC) is 15%. Besides, the “50% Haemolysis” value in the data set on erythrocyte came to 37.5 µM. The compound also gave a fraction unbound in data set [1] of 0.02.

As for `FC(F)(F)c1cc(NC(=S)NCCOc2ccc(Cl)c(Cl)c2)cc(C(F)(F)F)c1` [Compound E, 1-(3,5-Bis-trifluoromethyl-phenyl)-3-[2-(3,4-dichloro-phenoxy)-ethyl]-thiourea], the MIC with Staphylococcus aureus (setting [3]) came to 0.3 µM (≈ 0.143 µg/mL). Further, the “50% Haemolysis” value in the data set with erythrocyte amounted to 18.8 µM. In addition, the free fraction (fraction unbound) in data set [1] was 0.02.
